# Measurements: patent publication US8148097B2, “Screening method for identification of compounds with calcium-independent phospholipase A2β (iPLA2β) modulating activity” (Washington University, priority 2005, dated 2012)
# Experiments:
# iPLA2γ [1] = biological target: T1, iPLA2γ (Homo sapiens, UniProt Q9NP80); settings: racemic BEL, previous work; read-out: IC50, iPLA2γ phospholipase A2 activity; cited from earlier work
# T1 sequence (Q9NP80 1-782): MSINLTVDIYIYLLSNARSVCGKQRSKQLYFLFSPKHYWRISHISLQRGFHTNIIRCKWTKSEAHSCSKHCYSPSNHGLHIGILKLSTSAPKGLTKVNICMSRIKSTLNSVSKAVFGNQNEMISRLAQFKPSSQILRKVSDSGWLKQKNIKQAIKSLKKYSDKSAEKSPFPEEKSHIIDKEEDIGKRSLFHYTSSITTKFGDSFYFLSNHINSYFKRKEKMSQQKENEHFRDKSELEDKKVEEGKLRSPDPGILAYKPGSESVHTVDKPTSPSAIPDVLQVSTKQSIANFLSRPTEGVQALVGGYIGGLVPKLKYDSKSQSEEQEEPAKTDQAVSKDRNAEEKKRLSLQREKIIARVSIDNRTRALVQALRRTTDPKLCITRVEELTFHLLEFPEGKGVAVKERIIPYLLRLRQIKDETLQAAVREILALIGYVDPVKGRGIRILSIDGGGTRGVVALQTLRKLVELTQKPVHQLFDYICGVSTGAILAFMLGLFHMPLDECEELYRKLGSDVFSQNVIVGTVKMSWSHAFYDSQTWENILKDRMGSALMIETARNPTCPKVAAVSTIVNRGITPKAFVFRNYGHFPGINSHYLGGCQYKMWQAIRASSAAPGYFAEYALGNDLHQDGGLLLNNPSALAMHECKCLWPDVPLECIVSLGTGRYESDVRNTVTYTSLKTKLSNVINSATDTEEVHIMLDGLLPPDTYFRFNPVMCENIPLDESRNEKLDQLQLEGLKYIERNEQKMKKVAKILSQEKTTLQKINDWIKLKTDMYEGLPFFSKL
# iPLA2β [2] = biological target: T2, iPLA2β (Cricetulus griseus, UniProt A0A3L7I2I8); assay: Cardiolipin and phospholipid hydrolysis catalyzed by iPLA2β and inhibition by BEL; assay type: biochemical; settings: iPLA2b + BEL 10 μM, 20 min 37° C.
# T2 construct: (His)6; made in house; host or cells: Sf9 insect cells (baculovirus)
# T2 sequence (A0A3L7I2I8 1-752 isoform A0A3L7I2I8-2): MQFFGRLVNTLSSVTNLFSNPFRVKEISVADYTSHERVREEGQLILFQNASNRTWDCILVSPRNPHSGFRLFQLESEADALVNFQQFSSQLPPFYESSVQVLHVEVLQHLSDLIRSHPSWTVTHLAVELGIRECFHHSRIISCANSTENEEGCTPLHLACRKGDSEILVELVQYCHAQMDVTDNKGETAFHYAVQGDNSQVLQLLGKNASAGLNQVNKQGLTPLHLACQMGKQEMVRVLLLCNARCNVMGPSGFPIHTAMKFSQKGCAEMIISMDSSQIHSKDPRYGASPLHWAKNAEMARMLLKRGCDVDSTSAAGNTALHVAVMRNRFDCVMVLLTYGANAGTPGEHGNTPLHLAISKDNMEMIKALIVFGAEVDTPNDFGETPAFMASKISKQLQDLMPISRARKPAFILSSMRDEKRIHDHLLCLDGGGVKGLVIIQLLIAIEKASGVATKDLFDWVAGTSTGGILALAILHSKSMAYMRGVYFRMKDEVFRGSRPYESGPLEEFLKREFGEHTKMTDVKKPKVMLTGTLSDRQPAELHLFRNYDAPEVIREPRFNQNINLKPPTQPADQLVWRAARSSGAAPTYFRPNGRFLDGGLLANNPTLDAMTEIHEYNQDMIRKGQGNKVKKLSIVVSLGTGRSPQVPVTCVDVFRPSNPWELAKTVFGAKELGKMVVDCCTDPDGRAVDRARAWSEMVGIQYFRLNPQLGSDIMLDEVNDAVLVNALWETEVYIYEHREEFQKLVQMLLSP
# Method: (§1) Purified calcium-independent phospholipase A2 (iPLA2β) and calcium-independent phospholipase A2γ were incubated with vesicles containing 10% cardiolipin (tetra 18:1) for 20 min at 37° C.
# iPLA2β [3] = biological target: T2, iPLA2β; assay: Covalent acylation (autoacylation) of iPLA2β with [14C]-long chain acyl-CoAs; assay type: biochemical; settings: for effect of pretreatment on radiolabeling of iPLA2β with [1-14C]-oleoyl-CoA: 5 mM, 5 min at 30° C. pretreatment, FIG. 7
# Method: FIG. 5—Equivalent amounts of the indicated [1-^14C]-acyl-CoA guests (5 mol %) were incorporated into host POPC (100 μM) vesicles and incubated for 1 hr at 37° C. with equal amounts of either wild-type (WT) iPLA2β(His)6 (peptide disclosed as SEQ ID NO: 4), S465A iPLA2β(His)6 (peptide disclosed as SEQ ID NO: 4), or BEL-pretreated WT iPLA2β(His)6 (peptide disclosed as SEQ ID NO: 4) enzyme as described in Experimental Procedures. Samples were resolved by SDS-PAGE (10% gel), fixed, and dried before visualization by autoradiography.
# FIG. 6—Purified iPLA2β(His)6 (peptide disclosed as SEQ ID NO: 4) (2 μM) was incubated with the indicated concentrations of [1-^14C]-oleoyl-CoA present as guest in host POPC (100 μM) vesicles for 1 hr at 37° C. Samples were electrophoresed in parallel with standard amounts (0.5-10 nCi) of [^14C]-BSA of known activity (not shown). The fixed and dried gel was exposed to film and the resultant signals from the [^14C]-BSA were utilized to generate a standard curve utilizing ID software from a Kodak Imagestation to determine the incorporation of [1-^14C]-oleate into iPLA2β.
# FIG. 7—Purified iPLA2β(His)6 (peptide disclosed as SEQ ID NO: 4) was incubated with [1-^14C]-oleoyl CoA (10 mol %) incorporated as guest in host POPC vesicles. N-ethylmaleimide and iodoacetamide samples were pretreated with 5 mM of either reagent for 5 min at 30° C. before addition of [1-^14C]-oleoyl-CoA. Samples were incubated with 1 N HCl, 1 N NaOH, or 2 N neutral hydroxylamine for 1 hr at 30° C. as indicated. All samples, except lane 1, were precipitated with CHCl3/MeOH and washed with 70% acetone before SDS-PAGE and autoradiography as described in Experimental Procedures.
# FIG. 10—Purified iPLA2β(His)6 (peptide disclosed as SEQ ID NO: 4) was incubated with [1-^14C]-oleoyl CoA (10 mol %) incorporated as guest in host POPC vesicles in the presence of EGTA (5 mM), Ca^2+ (1 mM), CaM (3 μg), or Ca^2+-CaM for 1 h at 37° C. Samples were resolved by SDS-PAGE and the gel was soaked in Amplify fluorographic reagent, dried, and exposed to film as described in Experimental Procedures.
# Covalent Modification of […] with [^14C]-long chain Acyl CoAs—Purified recombinant iPLA2β(His)6 (peptide disclosed as SEQ ID NO: 4) was incubated with POPC vesicles containing 10 mol % [1-^14C]-acyl-CoA for 1 h at 37° C. […] Chloroform/methanol precipitation of some samples was performed as described (66) utilizing 15 μg of bovine serum albumin as carrier. In tests to examine the nature of the covalent linkage between oleic acid and iPLA2β, acid (HCl), base (NaOH), and hydroxylamine were added to the indicated concentrations and the samples were incubated at 30° C. for 1 h. Bovine serum albumin (15 μg) and SDS-PAGE loading buffer were then added to each sample prior to dialysis against 50 mM Tris-HCl, pH 6.8 containing 10% glycerol and 1% SDS for 4 h. Samples were electrophoresed by SDS-PAGE, fixed (40% methanol containing 10% acetic acid), stained with Coomassie Blue R-250, incubated in Amplify fluorographic reagent, dried, and exposed to Kodak Biomax MR film for 2-5 days at −80° C.
# iPLA2γ [4] = biological target: T1, iPLA2γ; assay: Cardiolipin and phospholipid hydrolysis catalyzed by iPLA2γ and inhibition by BEL; assay type: biochemical; settings: iPLA2g + BEL 10 μM, 20 min 37° C.
# Method: as §1
# iPLA2β [5] = biological target: T2, iPLA2β; assay: iPLA2β palmitoyl-CoA thioesterase (hydrolase) activity, palmitoyl-CoA guest in host vesicles; assay type: biochemical; settings: pre-incubated with purified iPLA2β(His)6; palmitoyl-CoA guest in POPC/DOPS host bilayers; read-out: IC50, iPLA2β palm-CoA hydrolase activity
# Method: The enzyme was then added to 100 mM Tris-HCl, pH 7.2 containing 1 mM EGTA and [1-^14C]-palmitoyl-CoA guest (5 mol %) in POPC (100 μM) host vesicles for 2 min at 37° C. Following extraction into butanol, liberated [1-^14C]-palmitic acid was separated from [1-^14C]-palmitoyl-CoA by TLC and quantified by liquid scintillation spectrometry as described in Experimental Procedures.
# FIG. 9—Calcium-independent iPLA2β was pre-incubated in the presence of Ca^2+ (1 mM) or Ca^2+-CaM (3 μg) on ice before addition to 95 μM POPC containing either 5 mol % [1-^14C]-POPC or [1-^14C]-palmitoyl-CoA in 100 mM Tris-HCl, pH 7.2. After incubation at 37° C. for 3 min, reactions were terminated by vortexing in the presence of butanol and released radiolabeled fatty acids were resolved by TLC and quantitated by liquid scintillation spectrometry as described in Experimental Procedures.
# Phospholipase A2 and Acyl-CoA Hydrolase Enzymatic Assays—Purified recombinant iPLA2β(His)6 (peptide disclosed as SEQ ID NO: 4) (0.1-1 μg) was incubated with radiolabeled phospholipid or acyl-CoA in 25 mM Tris-HCl, pH 7.2 containing 1 mM EGTA (200 μl final volume) for 1-2 mm at 37° C. […] Incorporation of acyl-CoA into the POPC/DOPS vesicles employed was determined as described previously (64). […]
# iPLA2β [6] = biological target: T2, iPLA2β; assay: iPLA2β-catalyzed acyl-CoA hydrolysis (substrate rate and selectivity); assay type: biochemical
# Method: Reactions were terminated by vortexing with butanol and [1-^14C]-palmitic acid extracted into the butanol layer was resolved by TLC and quantified by liquid scintillation spectrometry as described in Experimental Procedures. B, iPLA2β catalyzed hydrolysis of palmitoyl-CoA guest in host POPC/DOPS vesicles. The indicated mol % of [^14C]-palmitoyl-CoA were incorporated into POPC/DOPS (90:10) vesicles (100 μM final vesicle lipid concentration). Each data point represents the average±S.E. for at least 4 separate determinations.
# Released [1-^14C]-fatty acid was extracted into butanol by vortexing, resolved by TLC, and quantified by liquid scintillation spectrometry as described in Experimental Procedures. Each data point represents the average ±SE. from 8 separate determinations.
# In tests using acyl-CoAs as guests in host phospholipid bilayers, radiolabeled acyl-CoAs were incorporated into POPC/DOPS (90:10 mol %) vesicles before addition to the reaction mix. […] Incorporation of acyl-CoA into the POPC/DOPS vesicles employed was determined as described previously (64). Reactions were terminated by extraction of the released radiolabeled fatty acids into 100 μl butanol, separation of fatty acids from unreacted substrate by thin layer chromatography, and quantitation by scintillation spectroscopy as previous described (65). […]
# [7] = PAPC vesicles with 10 mol % tetra-18:1 CL
structure (smiles),measurement,setting,value
"O=C1O/C(=C/Br)CCC1c1cccc2ccccc12 (racemic) [BEL, (E)-6-(bromomethylene)-3-(1-naphthalenyl)-2H-tetrahydropyran-2-one]",IC50,iPLA2γ [1],~3 µM
same,16:0 FA,iPLA2β [2],0.96 nmol/reaction
same,18:1 FA,iPLA2β [2],0.61 nmol/reaction
same,20:4 FA,iPLA2β [2],0.50 nmol/reaction
same,Di-18:1 LysoCL,iPLA2β [2],0.15 nmol/reaction
same,Tri-18:1 LysoCL,iPLA2β [2],0.10 nmol/reaction
same,Tetra-18:1 CL,iPLA2β [2]; [7],1.95 nmol/reaction
same,effect of BEL pretreatment on iPLA2β acylation with palmitoyl-CoA and stearoyl-CoA,"iPLA2β [3]; BEL-pretreated iPLA2β, FIG. 5",marked increases in acylation
same,16:0 FA,iPLA2γ [4],3.07 nmol/reaction
same,18:1 FA,iPLA2γ [4],0.54 nmol/reaction
same,20:4 FA,iPLA2γ [4],0.54 nmol/reaction
same,Di-18:1 LysoCL,iPLA2γ [4],0.12 nmol/reaction
same,Tri-18:1 LysoCL,iPLA2γ [4],0.14 nmol/reaction
same,Tetra-18:1 CL,iPLA2γ [4]; [7],2.18 nmol/reaction
O=C1O/C(=C/Br)CC[C@@H]1c1cccc2ccccc12 [(R)-BEL],IC50,iPLA2β [5],0.8 µM
O=C1O/C(=C/Br)CC[C@H]1c1cccc2ccccc12 [(S)-BEL],IC50,iPLA2β [5],~0.1 µM
CC(C)(COP(=O)(O)OP(=O)(O)OC[C@H]1O[C@@H](n2cnc3c(N)ncnc32)[C@H](O)[C@@H]1OP(=O)(O)O)[C@@H](O)C(=O)NCCC(=O)NCCS [CoASH],inhibition of iPLA2β by high concentrations of CoASH,iPLA2β [6],not inhibited
CCN1C(=O)C=CC1=O [N-ethylmaleimide],effect of pretreatment on radiolabeling of iPLA2β with [1-14C]-oleoyl-CoA,iPLA2β [3],decreased radiolabeling
CCCCC/C=C\C/C=C\C/C=C\C/C=C\CCC[14C](=O)SCCNC(=O)CCNC(=O)[C@H](O)C(C)(C)COP(=O)(O)OP(=O)(O)OC[C@H]1O[C@@H](n2cnc3c(N)ncnc32)[C@H](O)[C@@H]1OP(=O)(O)O [[1-^14C]-arachidonoyl-CoA],"signal intensity of iPLA2β acylation, fold less than with [1-14C]-oleoyl-CoA","iPLA2β [3]; wild-type iPLA2β, FIG. 5",≈ 25 fold
NC(=O)CI [iodoacetamide],effect of pretreatment on radiolabeling of iPLA2β with [1-14C]-oleoyl-CoA,iPLA2β [3],decreased radiolabeling
CCCCCCCCCCCCCCCC(=O)SCCNC(=O)CCNC(=O)[C@H](O)C(C)(C)COP(=O)(O)OP(=O)(O)OC[C@H]1O[C@@H](n2cnc3c(N)ncnc32)[C@H](O)[C@@H]1OP(=O)(O)O [palmitoyl-CoA],maximal rate of palmitoyl-CoA thioesterase activity catalyzed by iPLA2β,"iPLA2β [6]; at 2.5 μM palmitoyl-CoA, FIG. 1A",≈ 250 nmol palmitic acid×min^−1×mg^−1 protein
